This note sets out measurements from patent US11274090B2, “P300/CBP HAT inhibitors” (Constellation Pharmaceuticals, Inc., priority 2018, dated 2022).

A value given as a limit tells only on which side of the number the result lay.

The term IC50 denotes the point on the concentration scale where inhibition reaches its midpoint.

Assay [1] has as its target full length p300 (Homo sapiens (Human), UniProt Q09472). Nature of the assay: full length p300 SPA assay. The format is biochemical. Particulars: average of at least 2 replicate titrations, read-out: FL P300 IC50. As for the experimental part:
Reactions were initiated with 12.5 μL 2 μM biotinylated H3(1-21) peptide (New England Peptide) and run for 1 hr at RT, then quenched with 20 μL stop solution (200 mM Tris pH 8.0, 200 mM EDTA, 2M NaCl, 160 μM anacardic acid). 35 μL of the reaction volume was transferred to a 384-well streptavidin FlashPlate (PerkinElmer) using a Bravo liquid handler (Velocity 11) and incubated for 1.5 hr at RT. Plates were aspirated, washed with 95 μL wash buffer (15 mM Tris pH 8.5, 0.069 μM Brij-35), aspirated, sealed, and scintillation counts read on a Topcount (PerkinElmer). Data were analyzed in Genedata to determine inhibitor IC50 values.
The full length p300 SPA assay was run following the same protocol as p300 HAT SPA assay, but used 6 nM purified full length p300 (purchased from Active Motif) in place of the purified p300-HAT domain.

In assay [2] the target is p300 HAT domain (residues 1287-1666) (Homo sapiens (Human), UniProt Q09472). The assay can be described thus: p300 HAT SPA assay (scintillation proximity assay, acetylation of biotinylated H3(1-21) peptide). The format is biochemical. To be noted: average of at least 2 replicate titrations. In short, it runs like this:
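Purified p300 HAT domain reaction transferred to streptavidin plates to capture biotinylated H3(1-21) peptide, incubated 1.5 hr at RT, and read by scintillation proximity. IC50 values derived from concentration-response data.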
For orientation: In a scintillation proximity assay essentially only radioactivity close to the scintillant gives light.

Sequence of p300 HAT domain (residues 1287-1666) (Q09472 1287-1666): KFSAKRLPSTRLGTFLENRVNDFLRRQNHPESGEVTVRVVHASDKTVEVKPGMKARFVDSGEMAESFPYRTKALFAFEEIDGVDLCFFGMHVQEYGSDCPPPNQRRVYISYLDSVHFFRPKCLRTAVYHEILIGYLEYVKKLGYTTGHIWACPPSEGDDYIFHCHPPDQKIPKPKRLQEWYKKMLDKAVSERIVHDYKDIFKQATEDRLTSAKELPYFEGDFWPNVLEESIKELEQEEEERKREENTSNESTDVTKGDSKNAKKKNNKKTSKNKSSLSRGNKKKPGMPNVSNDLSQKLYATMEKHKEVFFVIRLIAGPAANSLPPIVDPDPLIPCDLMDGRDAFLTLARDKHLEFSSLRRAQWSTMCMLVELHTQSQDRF
Sequence of full length p300 (Q09472 whole entry): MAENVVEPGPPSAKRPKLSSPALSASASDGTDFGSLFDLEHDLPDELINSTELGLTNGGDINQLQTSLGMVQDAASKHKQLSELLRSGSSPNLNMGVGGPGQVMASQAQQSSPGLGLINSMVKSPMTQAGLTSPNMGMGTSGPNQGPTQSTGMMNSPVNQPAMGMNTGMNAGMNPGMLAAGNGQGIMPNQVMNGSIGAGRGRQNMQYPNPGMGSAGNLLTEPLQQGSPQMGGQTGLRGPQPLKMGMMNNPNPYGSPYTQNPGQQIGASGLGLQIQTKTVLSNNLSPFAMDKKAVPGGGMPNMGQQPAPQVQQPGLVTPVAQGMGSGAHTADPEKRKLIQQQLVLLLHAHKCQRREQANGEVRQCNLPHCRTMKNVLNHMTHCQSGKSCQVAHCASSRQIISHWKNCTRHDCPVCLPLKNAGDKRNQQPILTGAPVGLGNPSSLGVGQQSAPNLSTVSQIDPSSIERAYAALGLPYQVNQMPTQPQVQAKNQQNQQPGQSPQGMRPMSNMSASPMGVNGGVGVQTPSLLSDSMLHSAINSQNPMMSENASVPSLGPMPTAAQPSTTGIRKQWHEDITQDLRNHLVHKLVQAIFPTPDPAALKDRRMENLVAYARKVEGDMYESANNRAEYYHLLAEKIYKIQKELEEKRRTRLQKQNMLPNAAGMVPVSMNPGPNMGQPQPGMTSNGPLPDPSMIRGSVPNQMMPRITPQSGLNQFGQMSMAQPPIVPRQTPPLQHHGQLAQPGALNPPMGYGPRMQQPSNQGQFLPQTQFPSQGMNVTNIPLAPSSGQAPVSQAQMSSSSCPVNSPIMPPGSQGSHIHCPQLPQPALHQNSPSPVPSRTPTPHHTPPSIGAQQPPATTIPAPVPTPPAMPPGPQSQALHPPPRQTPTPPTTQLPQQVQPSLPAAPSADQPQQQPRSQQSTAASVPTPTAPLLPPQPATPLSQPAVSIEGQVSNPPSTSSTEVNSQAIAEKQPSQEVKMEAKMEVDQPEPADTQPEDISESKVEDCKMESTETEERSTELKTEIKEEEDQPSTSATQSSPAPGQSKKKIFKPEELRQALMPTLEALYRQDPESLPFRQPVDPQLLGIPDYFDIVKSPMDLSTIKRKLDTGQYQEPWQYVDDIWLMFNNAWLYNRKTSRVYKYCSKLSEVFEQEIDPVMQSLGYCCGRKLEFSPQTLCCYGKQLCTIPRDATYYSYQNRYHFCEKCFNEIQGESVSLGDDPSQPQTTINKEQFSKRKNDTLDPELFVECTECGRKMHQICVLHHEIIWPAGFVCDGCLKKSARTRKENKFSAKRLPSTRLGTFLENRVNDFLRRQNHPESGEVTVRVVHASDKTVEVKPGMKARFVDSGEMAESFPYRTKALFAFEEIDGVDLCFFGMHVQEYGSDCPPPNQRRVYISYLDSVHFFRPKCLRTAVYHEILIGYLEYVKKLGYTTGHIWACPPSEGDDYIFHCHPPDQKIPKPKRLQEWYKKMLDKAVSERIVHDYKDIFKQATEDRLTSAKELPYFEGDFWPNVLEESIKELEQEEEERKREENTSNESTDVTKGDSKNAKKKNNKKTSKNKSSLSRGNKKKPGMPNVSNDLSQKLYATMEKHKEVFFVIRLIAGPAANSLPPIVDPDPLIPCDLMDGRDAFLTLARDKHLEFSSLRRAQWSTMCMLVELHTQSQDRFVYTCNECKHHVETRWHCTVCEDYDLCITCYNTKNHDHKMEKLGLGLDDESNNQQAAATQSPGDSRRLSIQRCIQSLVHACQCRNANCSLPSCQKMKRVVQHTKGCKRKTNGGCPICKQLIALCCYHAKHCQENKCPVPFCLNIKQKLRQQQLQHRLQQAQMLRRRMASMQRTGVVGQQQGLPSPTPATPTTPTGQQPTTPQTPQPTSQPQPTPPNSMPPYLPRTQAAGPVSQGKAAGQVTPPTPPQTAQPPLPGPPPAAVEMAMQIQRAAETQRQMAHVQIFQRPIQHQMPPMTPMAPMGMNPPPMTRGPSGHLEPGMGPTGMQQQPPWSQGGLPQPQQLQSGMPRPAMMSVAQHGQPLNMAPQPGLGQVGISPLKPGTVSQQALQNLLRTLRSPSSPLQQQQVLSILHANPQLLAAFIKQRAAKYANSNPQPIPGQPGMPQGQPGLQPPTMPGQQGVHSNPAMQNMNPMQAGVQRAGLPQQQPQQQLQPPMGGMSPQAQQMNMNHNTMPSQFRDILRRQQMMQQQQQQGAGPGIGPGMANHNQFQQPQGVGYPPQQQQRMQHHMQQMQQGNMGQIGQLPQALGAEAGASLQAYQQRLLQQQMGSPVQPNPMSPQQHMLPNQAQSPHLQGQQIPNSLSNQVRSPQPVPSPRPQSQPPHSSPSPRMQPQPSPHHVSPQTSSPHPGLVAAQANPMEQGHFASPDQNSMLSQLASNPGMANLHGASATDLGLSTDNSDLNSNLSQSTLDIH

As for `Cc1cn(-c2ccc(NC(=O)C(NCCc3ccc(C#N)cc3)c3ccccc3)nc2)cn1` (single isomer, unassigned) [28 Isomer 2], the results for the IC50 in assay [1] and in assay [2] were 24 nM and 2830 nM, respectively.

`COC1CN(c2ccc(NC(=O)C(NCCc3ccc(C#N)cc3)c3ccccc3)nc2)C1` (single isomer, unassigned) [31 Isomer 1]: the results for the concentration for half-maximal inhibition (IC50) in assay [1] and in assay [2] were 2.57 nM and 71.4 nM, respectively.

With `COC1CN(c2ccc(NC(=O)C(NCCc3ccc(C#N)cc3)c3ccccc3)nc2)C1` (single isomer, unassigned) [31 Isomer 2], the concentration for half-maximal inhibition (IC50) is 167 nM in assay [1] and over 5000 nM in assay [2].

Consider `N#Cc1ccc(CCNC(C(=O)Nc2ccc(-c3ccccc3)cn2)c2ccccc2)cc1` (single isomer, unassigned) [34 Isomer 1], for which the IC50 in assay [1] is 7250 nM; in assay [2], over 5000 nM.

`N#Cc1ccc(CCNC(C(=O)Nc2ccc(-c3ccccc3)cn2)c2ccccc2)cc1` (single isomer, unassigned) [34 Isomer 2]: the IC50 in assay [1] amounted to 11 nM; in assay [2], 361 nM.

Turning to `CN1CCN(c2ccc(NC(=O)C(NCCc3ccc(C#N)cc3)c3ccccc3)nc2)CC1=O` (single isomer, unassigned) [44 Isomer 1], the IC50 in assay [1] was 278 nM; in assay [2], over 2000 nM.

As for `CN1CCN(c2ccc(NC(=O)C(NCCc3ccc(C#N)cc3)c3ccccc3)nc2)CC1=O` (single isomer, unassigned) [44 Isomer 2], the values for the 50% inhibitory concentration (IC50) in assay [1] and in assay [2] were 2.66 nM and 41.6 nM, respectively.

For the molecule `CN1CCN(c2ccc(NC(=O)C(NCCc3ccc(Cl)cc3)c3ccccc3)nc2)CC1=O` (single isomer, unassigned) [45 Isomer 1], the IC50 in assay [1] is 1.46 nM; in assay [2], 26 nM.

`CN1CCN(c2ccc(NC(=O)C(NCCc3ccc(Cl)cc3)c3ccccc3)nc2)CC1=O` (single isomer, unassigned) [45 Isomer 2]: the values for the IC50 in assay [1] and in assay [2] were 43.1 nM and 1020 nM, respectively.

With `Cc1ccc(CCNC(C(=O)Nc2ccc(-c3cnn(C)c3)cn2)c2ccccc2)cc1` (single isomer, unassigned) [48 Isomer 2], the values for the IC50 in assay [1] and in assay [2] were 31.8 nM and 1560 nM, respectively.

Turning to `COC1(C)CCN(c2ccc(NC(=O)C(NCCc3ccc(C#N)cc3)c3ccccc3)nc2)CC1` (single isomer, unassigned) [53 Isomer 1], the IC50 in assay [1] was 5.16 nM; in assay [2] it was 121 nM.

Turning to `COC1(C)CCN(c2ccc(NC(=O)C(NCCc3ccc(C#N)cc3)c3ccccc3)nc2)CC1` (single isomer, unassigned) [53 Isomer 2], the 50% inhibitory concentration (IC50) in assay [1] was over 1000 nM; in assay [2], over 2000 nM.

`Cc1ccn(-c2ccc(NC(=O)C(NCC(C)c3ccc(C#N)cc3)c3ccccc3)nc2)n1` (single isomer, unassigned) [61 Isomer 1]: the half-maximal inhibitory concentration (IC50) in assay [1] was 120 nM; in assay [2], 2410 nM.

On to `Cc1ccn(-c2ccc(NC(=O)C(NCC(C)c3ccc(C#N)cc3)c3ccccc3)nc2)n1` (single isomer, unassigned) [61 Isomer 2], for which the results for the IC50 in assay [1] and in assay [2] were 123 nM and over 5000 nM, respectively.

As for `Cc1ccn(-c2ccc(NC(=O)C(NCC(C)c3ccc(C#N)cc3)c3ccccc3)nc2)n1` (single isomer, unassigned) [61 Isomer 3], the values for the IC50 in assay [1] and in assay [2] were under 2 nM and 31.5 nM, respectively.

Take `Cc1ccn(-c2ccc(NC(=O)C(NCC(C)c3ccc(C#N)cc3)c3ccccc3)nc2)n1` (single isomer, unassigned) [61 Isomer 4]: the IC50 is 68.5 nM in assay [1] and 1340 nM in assay [2].

`Cc1cnn(-c2ccc(NC(=O)C(NCC(C)c3ccc(C#N)cc3)c3ccccc3)nc2)c1` (single isomer, unassigned) [62 Isomer 1]: the IC50 in assay [1] is 224 nM; in assay [2] it was over 2000 nM.

In the case of `Cc1cnn(-c2ccc(NC(=O)C(NCC(C)c3ccc(C#N)cc3)c3ccccc3)nc2)c1` (single isomer, unassigned) [62 Isomer 2], the IC50 in assay [1] was determined as 16.7 nM; in assay [2], 565 nM.

For the molecule `Cc1cnn(-c2ccc(NC(=O)C(NCC(C)c3ccc(C#N)cc3)c3ccccc3)nc2)c1` (single isomer, unassigned) [62 Isomer 3], the IC50 was 618 nM in assay [1] and over 2000 nM in assay [2].

Consider `Cc1cnn(-c2ccc(NC(=O)C(NCC(C)c3ccc(C#N)cc3)c3ccccc3)nc2)c1` (single isomer, unassigned) [62 Isomer 4], for which the IC50 was under 2 nM in assay [1] and 52.6 nM in assay [2].

`CS(=O)(=O)N1CCN(c2ccc(NC(=O)C(NCCc3ccc(C#N)cc3)c3ccccc3)nc2)CC1` (single isomer, unassigned) [68 Isomer 2]: the values for the IC50 in assay [1] and in assay [2] were 1.9 nM and 70 nM, respectively.

Turning to `CC(=O)N1CCN(c2ccc(NC(=O)C(NCCc3ccc(C#N)cc3)c3ccccc3)nc2)CC1` (single isomer, unassigned) [72 Isomer 1], the 50% inhibitory concentration (IC50) worked out at 4.13 nM in assay [1] and 85.2 nM in assay [2].

As to `CC(=O)N1CCN(c2ccc(NC(=O)C(NCCc3ccc(C#N)cc3)c3ccccc3)nc2)CC1` (single isomer, unassigned) [72 Isomer 2], the figures for the IC50 in assay [1] and in assay [2] were 46.9 nM and over 2000 nM, respectively.

In the case of `Cn1cc(-c2cnc(NC(=O)C(NCCc3ccc(C#N)cc3)c3ccccc3)cc2F)cn1` (single isomer, unassigned) [74 Isomer 1], the IC50 in assay [1] is 214 nM; in assay [2] it was over 2000 nM.

`Cn1cc(-c2cnc(NC(=O)C(NCCc3ccc(C#N)cc3)c3ccccc3)cc2F)cn1` (single isomer, unassigned) [74 Isomer 2]: the IC50 came to 5 nM in assay [1] and 146 nM in assay [2].

Regarding `Cn1cc(-c2cnc(NC(=O)C(NCCc3ccc(C#N)cc3)c3ccccc3)c(F)c2)cn1` (single isomer, unassigned) [75 Isomer 1], the IC50 in assay [1] was found to be 4.2 nM; in assay [2] it was 149 nM.

`Cn1cc(-c2cnc(NC(=O)C(NCCc3ccc(C#N)cc3)c3ccccc3)c(F)c2)cn1` (single isomer, unassigned) [75 Isomer 2]: the IC50 in assay [1] is 387 nM; in assay [2] it was over 2000 nM.

In the case of `CC(CNC(C(=O)Nc1ccc(-c2cnn(C)c2)cn1)c1ccccc1)c1ccc(C#N)c(F)c1` (single isomer, unassigned) [91 Isomer 2], the figures for the half-inhibitory concentration (IC50) in assay [1] and in assay [2] were 0.75 nM and 6.4 nM, respectively.

For `CC(CNC(C(=O)Nc1ccc(-c2cnn(C)n2)cn1)c1ccccc1)c1ccc(C#N)cc1` (single isomer, unassigned) [98 Isomer 2], the IC50 in assay [1] amounted to 1 nM; in assay [2] it was 6.59 nM.

For the molecule `C[C@H](CNC(C(=O)Nc1ccc(-c2ccn(C)c(=O)c2)cn1)c1ccccc1)c1ccc(C#N)cc1` (single isomer, unassigned) [105 Isomer 2], the IC50 came to 0.7 nM in assay [1] and 16.4 nM in assay [2].

Consider `C[C@H](CNC(C(=O)Nc1ccc(C2CC(=O)N(C)C2)cn1)c1ccccc1)c1ccc(C#N)cc1` (single isomer, unassigned) [109 Isomer 4], for which the IC50 came out at 3.3 nM in assay [1] and 26.1 nM in assay [2].

Regarding `Cc1c(-c2ccc(NC(=O)C(NC[C@@H](C)c3ccc(C#N)cc3)c3ccccc3)nc2)cnn1C` (single isomer, unassigned) [114 Isomer 2], the results for the IC50 in assay [1] and in assay [2] were 0.73 nM and 10.5 nM, respectively.

Turning to `Cc1cc(NC(=O)C(NC[C@@H](C)c2ccc(C#N)cc2)c2ccccc2)ncc1-c1cnn(C)c1` (single isomer, unassigned) [115 Isomer 2], the concentration for half-maximal inhibition (IC50) in assay [1] is 1.2 nM; in assay [2], 32.7 nM.

Turning to `Cn1cc(-c2cccc(NC(=O)C(NCCc3ccc(C#N)cc3)c3ccccc3)n2)cn1` (single isomer, unassigned) [123 Isomer 1], the IC50 in assay [1] was 2020 nM; in assay [2] it was over 2000 nM.

For `Cn1cc(-c2cccc(NC(=O)C(NCCc3ccc(C#N)cc3)c3ccccc3)n2)cn1` (single isomer, unassigned) [123 Isomer 2], the half-maximal inhibitory concentration (IC50) in assay [1] is 13500 nM; in assay [2] it was over 2000 nM.

`CC1CN(c2ccc(NC(=O)C(NC[C@@H](C)c3ccc(C#N)cc3)c3ccccc3)nc2)CC(=O)N1C` (single isomer, unassigned) [124 Isomer 1]: the IC50 in assay [1] was 1.78 nM; in assay [2] it was 11 nM.

Take `Cc1nn(C)c(C)c1-c1ccc(NC(=O)C(NC[C@@H](C)c2ccc(C#N)cc2)c2ccccc2)nc1` (single isomer, unassigned) [130 Isomer 2]: the IC50 in assay [1] was under 3.24 nM; in assay [2] it was 14 nM.

In the case of `C[C@H](CNC(C(=O)Nc1ccc(-c2cnn(C)c(=O)c2)cn1)c1ccccc1)c1ccc(C#N)cc1` (single isomer, unassigned) [139 Isomer 1], the IC50 in assay [1] is under 3.24 nM; in assay [2], 26 nM.

`Cn1cc(-c2ccc(NC(=O)C(NCC(c3ccc(C#N)cc3)C(F)(F)F)c3ccccc3)nc2)cn1` (single isomer, unassigned) [149 Isomer 2]: the IC50 in assay [1] was under 3.24 nM; in assay [2], 19 nM.

In the case of `Cn1cc(-c2ccc3c(c2)CCN3C(=O)C(NCCc2ccc(C#N)cc2)c2ccccc2)cn1` (single isomer, unassigned) [152 Isomer 1], the concentration for half-maximal inhibition (IC50) in assay [1] amounted to 40.6 nM; in assay [2] it was 966 nM.

For `Cn1cc(-c2ccc3c(c2)CCN3C(=O)C(NCCc2ccc(C#N)cc2)c2ccccc2)cn1` (single isomer, unassigned) [152 Isomer 2], the IC50 is under 2 nM in assay [1] and 31.8 nM in assay [2].
